Reference: patent US8796244B2, “Imidazopyridine derivatives as inhibitors of receptor tyrosine kinases” (Astex Therapeutics Ltd, priority 2008, dated 2014)
Structures can show the parent of a compound that is named as a salt. Where two headings read alike, the source gives them in different places. Values belong to the compound of their own block, whether it stands above or below them.

Columns and labels:
[1] = tested on: LP-1 cell line (FGF-1/Heparin induced pERK); assay: Cell-based pERK ELISA, LP-1 cells; settings: Homo sapiens, LP-1, read-out: LP-1 pERK ELISA (μM)
[2] = tested on: parental wild-type Ba/F3 cells; assay: Ba/F3 (WT) cell proliferation assay (Alamar Blue); format: cell-based; settings: Mus musculus; for inhibition at 10 µM: BaF3, read-out: BaF3 WT prolif, % inhibition
[3] = BaF3, 72 hours, Alamar Blue, read-out: BaF3 WT prolif
[4] = BaF3, 72 h, read-out: BaF3 WT prolif (μM)

SMILES: O=C(Nc1cccc(-c2cnc3cc(-c4ccc(F)cc4)ccn23)c1)NC1CC1 [Example 28, 1-Cyclopropyl-3-{3-[7-(4-fluorophenyl)imidazo[1,2-a]pyridin-3-yl]phenyl}urea]
IC50 [1]: 0.17 µM
inhibition at 10 µM [2]: 35%

IC50 [1]: 0.12 µM
SMILES: O=C(NCC(F)(F)F)Nc1cncc(-c2cnc3cc(C#CC4CC4)ccn23)c1 [Example 29, 1-[5-(7-Cyclopropylethynylimidazo[1,2-a]pyridin-3-yl)pyridin-3-yl]-3-(2,2,2-trifluoroethyl)urea]
IC50 [2, 3]: 3.1 µM

IC50 [1]: 0.045 µM
SMILES: O=C(NCC(F)(F)F)Nc1cccc(-c2cnc3cc(-c4cnccn4)ccn23)c1 [Example 30, 1-[3-(7-Pyrazin-2-ylimidazo[1,2-a]pyridin-3-yl)phenyl]-3-(2,2,2-trifluoroethyl)urea]
IC50 [2, 3]: 0.13 µM

SMILES: O=C(NCC(F)(F)F)Nc1cncc(-c2cnc3cc(Cl)ccn23)c1 [Example 31, 1-[5-(7-Chloroimidazo[1,2-a]pyridin-3-yl)pyridin-3-yl]-3-(2,2,2-trifluoroethyl)urea]
IC50 [1]: 0.82 µM
inhibition at 10 µM [2]: 0%

IC50 [1]: 0.057 µM
SMILES: O=C(NCC(F)(F)F)Nc1cccc(-c2cnc3cc(-c4ccc(Cl)nn4)ccn23)c1 [Example 33, 1-{3-[7-(6-Chloropyridazin-3-yl)-imidazo[1,2-a]pyridin-3-yl]phenyl}-3-(2,2,2-trifluoroethyl)urea]
IC50 [2, 3]: 0.32 µM

SMILES: O=C(NCC(F)(F)F)Nc1cccc(-c2cnc3cc(-c4ccncn4)ccn23)c1 [Example 34, 1-[3-(7-Pyrimidin-4-ylimidazo[1,2-a]pyridin-3-yl)phenyl]-3-(2,2,2-trifluoroethyl)urea hydrochloride]
IC50 [1]: 0.013 µM
inhibition at 10 µM [2]: 0%

SMILES: O=C(NCC(F)(F)F)Nc1cncc(-c2cnc3cc(-c4ncccn4)ccn23)c1 [Example 35, 1-[5-(7-Pyrimidin-2-yl-imidazo[1,2-a]pyridine-3-yl)pyridin-3-yl]-3-(2,2,2-trifluoroethyl)urea hydrochloride]
IC50 [1]: 0.33 µM
inhibition at 10 µM [2]: 0%

SMILES: CN(C)C1CCN(c2ccc(-c3ccn4c(-c5cccc(NC(=O)NCC(F)(F)F)c5)cnc4c3)nn2)CC1 [Example 36, 1-(3-{7-[6-(4-Dimethylaminopiperidin-1-yl)pyridazin-3-yl]imidazo[1,2-a]pyridin-3-yl}-phenyl)-3-(2,2,2-trifluoroethyl)urea hydrochloride.]
IC50 [1]: 0.065 µM
inhibition at 10 µM [2]: 0%

SMILES: O=C(NCC(F)(F)F)Nc1cccc(-c2cnc3cc(-c4cnn(C5CNC5)c4)ccn23)c1 [Example 37, 1-{3-[7-(1-Azetidin-3-yl-1H-pyrazol-4-yl)-imidazo[1,2-a]pyridin-3-yl]phenyl}-3-(2,2,2-trifluoroethyl)urea]
IC50 [1]: 0.29 µM
inhibition at 10 µM [2]: 3.3%

SMILES: O=C(NCC(F)(F)F)Nc1cccc(-c2cnc3cc(-c4cnn(C5CCCNC5)c4)ccn23)c1 (centres unmarked) [Example 40, 1-{3-[7-(1-Piperidin-3-yl-1H-pyrazol-4-yl)-imidazo[1,2-a]pyridin-3-yl]-phenyl}-3-(2,2,2-trifluoro-ethyl)-urea formate]
IC50 [1]: 0.046 µM
IC50 [2, 4]: 4 µM

SMILES: CN1CC(n2cc(-c3ccn4c(-c5cccc(NC(=O)NCC(F)(F)F)c5)cnc4c3)cn2)C1 [Example 41, 1-(3-{7-[1-(1-Methyl-azetidin-3-yl)-1H-pyrazol-4-yl]-imidazo[1,2-a]pyridin-3-yl}-phenyl)-3-(2,2,2-trifluoro-ethyl)-urea formate]
IC50 [1]: 0.025 µM
IC50 [2, 4]: 2.8 µM

SMILES: O=C(NCC(F)(F)F)Nc1cccc(-c2cnc3cc(-c4cncnc4)ccn23)c1 [Example 42, 1-[3-(7-Pyrimidin-5-yl-imidazo[1,2-a]pyridin-3-yl)-phenyl]-3-(2,2,2-trifluoro-ethyl)-urea hydrochloride]
IC50 [1]: 0.27 µM
IC50 [2, 4]: 1.1 µM

SMILES: NC(=O)c1sccc1-c1ccn2c(-c3cccc(NC(=O)NCC(F)(F)F)c3)cnc2c1 [Example 43, 3-(3-{3-[3-(2,2,2-Trifluoroethyl)-ureido]-phenyl}-imidazo[1,2-a]pyridin-7-yl)-thiophene-2-carboxylic acid amide hydrochloride]
IC50 [1]: 0.35 µM
inhibition at 10 µM [2]: 0%

SMILES: O=C(NCC(F)(F)F)Nc1cccc(-c2cnc3cc(-c4cnn(C5CCNC5)c4)ccn23)c1 (centres unmarked) [Example 45, 1-{3-[7-(1-Pyrrolidin-3-yl-1H-pyrazol-4-yl)-imidazo[1,2-a]pyridin-3-yl]-phenyl}-3-(2,2,2-trifluoro-ethyl)-urea]
IC50 [1]: 0.35 µM
inhibition at 10 µM [2]: 0%

SMILES: O=C(NCC(F)(F)F)Nc1cccc(-c2cnc3cc(-c4nccc(C(F)(F)F)n4)ccn23)c1 [Example 46, 1-(2,2,2-Trifluoro-ethyl)-3-{3-[7-(4-trifluoromethyl-pyrimidin-2-yl)-imidazo[1,2-a]pyridin-3-yl]-phenyl}-urea hydrochloride]
IC50 [1]: 0.18 µM
inhibition at 10 µM [2]: 27%

SMILES: O=C(NCC(F)(F)F)Nc1cccc(-c2cnc3cc(-c4cnn(C5CCOC5)c4)ccn23)c1 (centres unmarked) [Example 47, 1-(3-{7-[1-(Tetrahydro-furan-3-yl)-1H-pyrazol-4-yl]-imidazo[1,2-a]pyridin-3-yl}-phenyl)-3-(2,2,2-trifluoro-ethyl)-urea hydrochloride]
IC50 [1]: 0.0098 µM
IC50 [2, 4]: 0.68 µM

SMILES: COc1cc(OC)nc(-c2ccn3c(-c4cccc(NC(=O)NCC(F)(F)F)c4)cnc3c2)n1 [Example 48, 1-{3-[7-(4,6-Dimethoxy-pyrimidin-2-yl)-imidazo[1,2-a]pyridin-3-yl]-phenyl}-3-(2,2,2-trifluoro-ethyl)-urea hydrochloride]
IC50 [1]: 0.13 µM
inhibition at 10 µM [2]: 0%

SMILES: O=C(NCC(F)(F)F)Nc1cccc(-c2cnc3cc(-c4ccc(N5CCCCC5)nc4)ccn23)c1 [Example 49, 1-{3-[7-(3,4,5,6-Tetrahydro-2H-[1,2′]bipyridinyl-5′-yl)-imidazo[1,2-a]pyridin-3-yl]-phenyl}-3-(2,2,2-trifluoro-ethyl)-urea hydrochloride]
IC50 [1]: 0.017 µM
IC50 [2, 4]: 0.29 µM

SMILES: COc1ccc(-c2ccn3c(-c4cccc(NC(=O)NCC(F)(F)F)c4)cnc3c2)nn1 [Example 51, 1-{3-[7-(6-Methoxy-pyridazin-3-yl)-1,7-imidazo[1,2-a]pyridin-3-yl]-phenyl}-3-(2,2,2-trifluoro-ethyl)-urea]
IC50 [1]: 0.015 µM
inhibition at 10 µM [2]: 10%

SMILES: O=C(NCC(F)(F)F)Nc1cccc(-c2cnc3cc(-c4ccc(=O)[nH]n4)ccn23)c1 [Example 52, 1-{3-[7-(6-Oxo-1,6-dihydropyridazin-3-yl)-imidazo[1,2-a]pyridin-3-yl]-phenyl}-3-(2,2,2-trifluoro-ethyl)-urea]
IC50 [1]: 0.33 µM
inhibition at 10 µM [2]: 51%

SMILES: O=C(NCC(F)(F)F)Nc1cccc(-c2cnc3cc(-c4nc5c(s4)CNCC5)ccn23)c1 [Example 53, 1-{3-[7-(4,5,6,7-Tetrahydro-thiazolo[5,4-c]pyridin-2-yl)-imidazo[1,2-a]pyridin-3-yl]-phenyl}-3-(2,2,2-trifluoroethyl)-urea formate]
IC50 [1]: 0.023 µM
IC50 [2, 4]: 4.1 µM

SMILES: Cn1cc(C#Cc2ccn3c(-c4cccc(NC(=O)NCC(F)(F)F)c4)cnc3c2)cn1 [Example 56, 1-{3-[7-(1-Methyl-1H-pyrazol-4-ylethynyl)-imidazo[1,2-a]pyridin-3-yl]-phenyl}-3-(2,2,2-trifluoro-ethyl)-urea formate]
IC50 [1]: 0.021 µM
IC50 [2, 4]: 4.6 µM
